# Test results taken from patent US7728105B2, “Peptides impairing PBX dependent gene regulation” (St. George's Hospital Medical School, priority 2002, dated 2010).
# How the values were obtained:
# Type in all cases: cell-based, human
# [1] = tested on: leukaemic cell lines KG1a, KG1, HL60 and U937; experiment: Leukaemic cell lines culture, trypan blue cell count (Example 1); details: 20 μg/ml
# Experimental: KG1a, KG1, HL60 and U937 cell lines were obtained from the ATCC (catalogue Nos. CCL-246.1, CCL-246, CCL-240 and CRL-1593.2, respectively.
# Cell lines were seeded at 1-5×10^5 cells/ml in liquid culture system made of RPMI-1640 medium (Life Technologies, UK) supplemented with Foetal Calf Serum (10% Sigma Aldrich) and gentamycin (50 μg/ml, Life Technologies) and at least in duplicate. When required the HXP peptide was added to the medium (20 μg/ml). Cell lines were cultured for up to 7 days at 37° C., 5% CO2 in humidified atmosphere. Cultured cells were then counted at various time points using trypan blue exclusion method described above.
# [2] = tested on: KG1a, KG1, HL60 and U937 cells; experiment: Cell cycle analysis (propidium iodide, flow cytometry) of leukaemic cell lines (Example 1)
# Experimental: (§1) Cells to be investigated were harvested and washed in PBS at 400 g for 10 min. Pelleted cells were then fixed in ice-cold 70% ethanol. Fixed cells were subsequently washed twice in PBS (600 g; 10 min) and incubated in 100 μl of ribonuclease (100 μg/ml; Sigma Aldrich) for 5 min (room temperature) prior to addition of 400 μl of propidium iodide (50 μg/ml; Sigma Aldrich) and 30 minutes incubation (37° C.). Cells were then analysed for cell cycle status on FACScan flow cytometer (Becton Dickinson, USA) and using WinMDI and Cylchred softwares.
# [3] = tested on: CD133+ cells; experiment: Cell cycle status of CD133+ cells (G0-G1)
# Experimental: as §1
# CD133+ cells (another name for AC133+ cells) were seeded in duplicate at 4×10^4 cells/ml in IMDM (Life Technologies), 10% FCS (Sigma Aldrich) and gentamycin (50 μg/ml Life Technologies) and Thrombopoietin (TPO) 10 ng/ml, Flt3-Ligand (FL) 50 ng/ml & c-KitL (K) 20 ng/ml), all obtained from R and D systems Ltd., UK. (Forraz et al., 2002). The HXP peptide (N-term: WYPWMKKHHRQIKIWFQNRRMKWKK: C-term; Eurogentec, Belgium) and control CXP peptide (N-term: WCCLADRHGRQIKIWFQNRRMKWKK: C-term; Eurogentec, Belgium) were added to culture medium at a concentration of 20 μg/ml. To withdraw peptides from culture, cells were washed twice in IMDM or RPMI and reseeded at prewash cell densities. Primary cells were cultured for 3 weeks at 37° C., 5% CO2 in humidified atmosphere and enumerated by a […] exclusion method with a heamocytometer.
# [4] = tested on: CD133+ cells; experiment: RT-PCR of HOX-PBX target genes in CD133+ cells
# Experimental: Total RNA was isolated from liquid nitrogen snap-frozen cells using RNeasy Mini Kit protocol (Qiagen, Crawley, UK). 50 μl reverse transcription reactions using 1 μg of RNA per reaction heated at 75° C. cDNA with 1 μg of oligo-dT for 10 mins. Samples were cooled on ice and mixed with 200 units of M-MLV reverse transcriptase (Promega, Southampton, UK) in its associated buffer, 400 μM of dNTPs (Promega), and 40 units of RNAseout (Invitrogen, Paisley, UK). Samples were then incubated at 37° C. for one hour and finally heated at 75° C. for 5 mins. PCR reactions (35 cycles, 94° C. 30 sec, 55° C. 30 sec, 72° C. 1 min) were carried out in a 20 μl reaction using JumpStart ReadyMix REDTaq DNA polymerase (Sigma-Aldrich) using an identical amount of cDNA per reaction with 1 μM of forward and reverse primers.
# [5] = tested on: PBX1, 2 and 3 association with HOX proteins; experiment: Cross-linking and Western blot of PBX proteins in KG1a cells (Example 2); details: 24 hours, 1 μM peptide, EDC cross-linking
# Experimental: HXP and control peptides were as described in Example 1. KG1a cells were grown as described in Example 1. KG1a cells were cultured for 24 hours without treatment, or in the presence of 1 μM HXP peptide or control peptide. The cells were harvested and lysed. One aliquot of the cells was subject to cross-linking. Frozen cells were lysed using standard techniques and […] of lysate was incubated for 30 minutes at room temperature in 4 mM 1-ethyl-3-[3-(dimethyl-amino)propyl]carbodimide (EDC), 4 mM sulpho-NHS, 20 mM HEPES (pH 7.5), 5 mM MgCl2, and 0.03% (w/v) […] to cross-link non-covalently associated proteins. The reaction was stopped by the addition of ammonium acetate to a final concentration of 50 mM. The other aliquot was frozen without cross-linking.
# Proteins were extracted from the cells of both aliquots by standard techniques and separated by gel electrophoresis. The gels were probed by Western blot with an antibody raised against PBX1, 2 and 3 (sc-888, Santa Cruz Inc. USA) or an anti-beta actin antibody (sc-1615, Santa Cruz Inc. USA).
# [6] = tested on: Hox genes in malignant cell lines; experiment: RT-PCR of HOX gene expression in malignant cell lines; details: 20 μg/ml, at least two different Hox genes in each case
# Experimental: A number of cell lines representing different malignancies were grown in culture for seven days, and HXP peptide or the control peptide CXP were added to a final concentration of 20 μg/ml on day 3. The bars represent the fold increase of each cell line over the seven days; the empty, dashed bars indicate the CXP peptide treated cells, whilst the solid bars indicate the addition of HXP peptide. Error bars represent the standard error the mean, and n is the number of experiments performed. The cell lines used were: AML—KG1a; Bladder—HT; Breast—SKBR3; Cervical—HeLa; Colon—Colo41; Gastric—MKN-45; Large cell lung cancer—MES; Melanoma—DX3; Ovarian—1847; Pancreatic—Panc-Tu1; Prostate—LNCAP; Renal—HT1376; Small cell lung cancer—NCI-h510A. The change in the expression of the HOX genes expressed by each cell line was assessed by RT-PCR on RNA extracted from the cells at the end of seven days. ‘HOX gene inactivated’ means that the level of expression of each of the listed HOX genes was at least five fold lower in the HXP peptide treated cells compared to the control. *Analysis not yet complete.
# The sequences of RT-PCR primers used are set out below. For each primer pair, the amplified region is given in relation to the known gene sequence as available through GenBank (http://www.ncbi.nlm.nih.gov/entrez).
substance,measurement,setting,value
WYPWMKKHHRQIKIWFQNRRMKWKK [HXP peptide],inhibition of leukaemic cell lines (cell growth),[1],inhibits
same,effect on cell cycle of more mature leukaemic cells,[2]; HL60 and U937,slowed
same,effect on cell cycle of immature leukaemic cells,[2]; KG1 and KG1a,may be propelled into the cell cycle
same,proportion of cells in phase G0-G1 upon withdrawing HXP peptide,[3]; compared to the HXP peptide-treated group,lower proportion of cells remained in phase G0-G1
same,more cells in phase G0-G1 of the cell cycle than the control group,"[3]; day 18 of culture, vs CXP4 treated cells, p<0.05",9.9%
same,CD38 gene expression,[4]; 18 days,up-regulated
same,"expression of HOX-PBX target genes (CDC25, CDK2, N-Ras, Ras-like GTP binding protein, MMP19, MMP1, MAPK, RAB27A, Bak2, p53, CTCF, EIF4E, CD133, CD34, TERT, HOX B4, B8 and A9)",[4]; 18 days,significantly down regulated
same,expression of HOX-PBX target genes after withdrawing HXP peptide,[4]; withdrawal at day 7,up-regulation of all of these genes with the exception of MAPK
same,association of PBX proteins with other proteins (HOX proteins),[5],none of the PBX isoforms from the HXP peptide treated cells were associated with other proteins
same,Hox gene expression in each cancer cell line with reduced proliferation,[6],transcriptionaly silenced
